# Like-named read-outs stand apart in the source and are kept apart here.
# Target: T1, GAT3 L314Q (Homo sapiens, UniProt P48066, L314Q)
# T1 construct: expressed in transfected cells; host or cells: tsA201 (transformed HEK293), transient
# T1 sequence (P48066 1-632 L314Q): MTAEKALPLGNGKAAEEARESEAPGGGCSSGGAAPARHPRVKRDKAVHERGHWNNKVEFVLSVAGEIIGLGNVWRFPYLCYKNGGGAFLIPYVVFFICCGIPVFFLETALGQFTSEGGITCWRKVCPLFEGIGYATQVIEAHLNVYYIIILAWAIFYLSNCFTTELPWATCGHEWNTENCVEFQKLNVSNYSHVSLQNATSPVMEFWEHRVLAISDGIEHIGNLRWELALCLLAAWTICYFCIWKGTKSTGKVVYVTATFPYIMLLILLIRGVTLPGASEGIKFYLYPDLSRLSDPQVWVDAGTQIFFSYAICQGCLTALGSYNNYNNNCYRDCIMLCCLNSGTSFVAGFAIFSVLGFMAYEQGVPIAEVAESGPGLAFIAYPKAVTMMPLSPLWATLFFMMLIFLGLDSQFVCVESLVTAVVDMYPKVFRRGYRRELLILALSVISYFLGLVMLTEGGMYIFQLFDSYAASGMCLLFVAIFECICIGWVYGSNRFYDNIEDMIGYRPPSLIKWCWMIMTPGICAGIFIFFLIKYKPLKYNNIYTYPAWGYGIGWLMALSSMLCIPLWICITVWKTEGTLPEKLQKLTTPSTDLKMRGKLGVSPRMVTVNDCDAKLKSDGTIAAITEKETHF
# Assay: [3H]GABA uptake assay, transient expression in tsA201 cells
# Format: cell-based
# Conditions: for Increase in inhibitory activity relative to wt: GAT3 L314Q vs GAT3 wt; for IC50: GAT3 L314Q, tsA201 cells
# From the text: According to the docking and MD results, the sidechains of Q299 and E52 were identified to form crucial interactions with the protonated nitrogen of both compounds. The residue Q299 in human BGT1 corresponds to leucine in all other GATs (human, rat, mouse), while E52 corresponds to tyrosine in GAT1 (human, rat, mouse) but is conserved among GAT2, GAT3 and BGT1 (human, rat, mouse) (Figure 6A) ([Kickinger et al., 2019]). Thus, we engineered the corresponding mutants Q299L and E52Y in human BGT1 and predicted that the introduction of these mutations would lead to decreased activity of both bicyclo-GABA and 2 due to the loss of essential hydrogen bond interactions. Furthermore, we wanted to test the double mutant E52Y + Q299L. However, in a previous study this mutant was proven non-functional ([Kickinger et al., 2020]). Instead, we generated the double mutant E52A + Q299L as well as the single mutant E52A. For these mutants we predicted decreased activity. Lastly, the reciprocal mutation to BGT1 Q299L was created in GAT3 (L314Q), ideally expecting a gain-of-function.
# FIGURE 6 (A) Pocket alignment of the orthosteric site of the four GAT subtypes colored according to the default ClustalX color scheme ([Larkin et al., 2007]). The pocket was defined as all corresponding GAT residues (15 in total) that are within a distance of 4.5 Å of the co-crystallized ligand leucine in the homologous LeuT crystal structure (PDB ID 2A65) ([Yamashita et al., 2005]) according to the alignment by Kickinger et al. ([Kickinger et al., 2019]). The mutated residues in BGT1 and the corresponding residues in GAT1-3 are indicated by a red box. The numbering of all residues within the orthosteric pocket can be found in the Supplementary Table S1.
# The tsA201 cell line (a transformed HEK293 cell line), the Flp-In CHO cell lines stably expressing human (h) GATs and the HEK293 cell line stably expressing human α1β2γ2 GABAA receptors have been described previously and were cultured accordingly ([Al-Khawaja et al., 2014]; [Falk-Petersen et al., 2020]). The tsA201 cell line used for transient expression of hGATs was transfected with DNA constructs (8 μg per 10 cm plate) using 40 μL PolyFect transfection reagent according to the manufacturer’s protocol (Qiagen). All DNA constructs used have been described previously: wt hBGT1, wt GAT3 ([Kvist et al., 2009]), BGT1 Q299, GAT3 L314Q ([Jørgensen et al., 2017]), hBGT E52Y, BGT1 E52A and BGT1 E52A + Q299L ([Kickinger et al., 2020]).
# Briefly, cells were seeded in white 96-well plates (White Opaque Tissue Culture (TC) plated 96-well Microplate) pre-coated with PDL. Medium was removed on the following day and cells washed with 100 µL/well assay buffer (HBSS supplemented with 20 mM HEPES, 1 mM CaCl2 and 1 mM MgCl2, pH 7.4). […] The cells were washed 3 times with 100 µL/well ice-cold assay buffer, 150 µL/well MicroScint™20 was subsequently added before the plate was shaken for at least 1 h. The plate was counted in a Packard TopCounter microplate scintillation counter (PerkinElmer) for 3 min per well. Typical counts per minute for the different GATs were in the range of: wt hBGT1 (100–4,000), BGT1 Q299 (100–1,000), hBGT E52Y (150–500), BGT1 E52A (150–8,000), BGT1 E52A + Q299L (150–500), wt GAT3 (200–8,000), GAT3 L314Q (100–1,500), wt GAT1 (100–10,000) and wt GAT2 (150–7,500). […] Data presented is the pooled data of at least three independent experiments with three technical replicates if not stated otherwise in figure legends. Concentration–response curves were fitted by non-linear regression to the sigmoidal concentration-response model with GraphPad Prism (version 9.0.0, GraphPad Software, San Diego, CA, United States) as described ([Lie et al., 2020]).
structure (smiles),measurement,setting,value
"N[C@@]12CC[C@H](C(=O)O)[C@@H]1C2 [bicyclo-GABA, (1S,2S,5R)-5-aminobicyclo[3.1.0]hexane-2-carboxylic acid]",Increase in inhibitory activity relative to wt,,38 times
same,IC50,read-out: IC50,16 µM
same,IC50,read-out: pIC50 ± S.E.M. (converted),12.6 µM
CN[C@@]12CC[C@H](C(=O)O)[C@@H]1C2 [compound 2],Increase in inhibitory activity relative to wt,,not increased
same,IC50,read-out: IC50,291 µM

# Source: article PMC8476755 (Frontiers in Chemistry, 2021)
